From PMC4666608, “Metabolic Profiling of Chicken Embryos Exposed to Perfluorooctanoic Acid (PFOA) and Agonists to Peroxisome Proliferator-Activated Receptors” (PLoS ONE, 2015)
Marks after values point to notes of the source that are not given here.

Tested on: chicken embryos
Experiment: Metabolic profiling of allantoic fluid (GC-MS, LC-MS, OPLS-DA)
Format: in vivo, Gallus gallus domesticus
Conditions: for Mean concentration relative to control, feature Win004_C08 / Mean concentration relative to control, feature Win005_C07 / Mean concentration relative to control, feature Win008_C06 / Mean concentration relative to control, feature Win022_C01 / Mean concentration relative to control, feature Win023_C06 / Mean concentration relative to control, feature win006_C01 / Mean concentration relative to control, feature Win008_C07 / Mean concentration relative to control, feature Win023_C03 / Mean concentration relative to control, feature Win007_C09 / Mean concentration relative to control, feature Win008_C05 / Mean concentration relative to control, feature Win018_C04 / Mean concentration relative to control, feature Win007_C03 / Mean concentration relative to control, feature Win042_C02 / Mean concentration relative to control, feature Win009_C03 / Mean concentration relative to control, feature Win008_C04 / Mean concentration relative to control, feature Win005_C03 / Mean concentration relative to control, feature Win013_C05: GC; for Mean concentration relative to control, feature Win008_C07: tentative 1-Aminocyclopropanecarboxylic acid; for Mean concentration relative to control, feature Win023_C03: tentative 2-Oxoglutaric acid; for Mean concentration relative to control, feature Win007_C09 / Mean concentration relative to control, feature Win008_C05: tentative 2-Oxovaleric acid; for Mean concentration relative to control, feature Win018_C04: tentative 3-Amino-2-piperidone; for Mean concentration relative to control, feature Win007_C03: tentative 3-Hydroxybutanoic acid; for Mean concentration relative to control, feature Win042_C02: tentative Cystathionine; for Mean concentration relative to control, feature Win009_C03: tentative Ketoleucine; for Mean concentration relative to control, feature Win008_C04: tentative Malonic acid; for Mean concentration relative to control, feature Win005_C03: tentative Oxalic acid; for Mean concentration relative to control, feature Win013_C05: tentative Succinic acid
Protocol: Controls were injected with 20 μL vehicle only (DMSO).
Plasma was collected and stored at -70°C.
Metabolites in allantoic fluid and blood plasma were analyzed using gas chromatography-mass spectrometry (GC-MS) and liquid chromatography-mass spectrometry (LC-MS) as described in S1 Methods. Prior to GC-MS and LC-MS analysis, allantoic fluid (100 μL) and blood plasma (50 μL) were extracted. To each sample, 900 μL (allantoic fluid) or 450 μL (blood plasma) of extraction buffer (90/10 v/v methanol:water) including all internal standards were added. Standards for GC-MS were proline, succinic acid, glutamic acid, salicylic acid, alpha-ketoglutarate, putrescine, myristic acid, hexadecanoic acid, cholesterol, and sucrose. Standards for LC-MS were Val-Tyr-Val, Leu-enkephalin, sulfadimethoxine and reserpine. Samples were homogenized by shaking in a bead mill at a frequency of 30 Hz for 3 minutes and proteins were precipitated at +4°C on ice. The samples were centrifuged at +4°C, 14000 rpm, for 10 min. Then, 200 μL supernatant was transferred to a GC microvial and 200 μL was transferred to an LC microvial, and solvents were evaporated. Samples from the four replicate experiments were analyzed using in chronological order and within each replicate experiment the run order of the individual samples was randomized.
Multivariate statistical analyses of metabolite profiles were performed using the software package SIMCA-P version 13.0 (Umetrics, Umeå, Sweden). Data was centered and scaled to variance 1 (UV scaling) prior to modelling. To reduce unintended systematic variation caused by sample processing and instrument drift, GC-MS and LC-MS metabolite amounts (expressed as the area under the chromatographic peak) were normalized by Orthogonal Partial Least Squares analysis (O2PLS) prior to multivariate data analysis. O2PLS finds common (predictive) and unique (orthogonal) variation in two data matrices. If applied to find the common variation between the data matrix containing the measured metabolite concentrations and a matrix containing only the internal standards, the only common (predictive) variation expected is due to the unintended systematic variation. By deleting the contribution of the predictive latent variables, that variation can be removed from the data. Models obtained after this normalization contain in general less latent variables, and this simplification helps when deciding on the number of latent variables to be used. Following normalization, GC-MS and LC-MS data were analyzed together. Initially, a global Principal Component Analysis (PCA) was performed to get an overview of groups and trends and to identify outliers. Projections to latent structures by means of Orthogonal Partial Least Squares Discriminant Analysis (OPLS-DA) was used to model the relationship between the X-matrix (metabolite concentrations) and the Y matrix (class, i.e. exposure group or sex), and to find x-variables that were related to class belonging. OPLS-DA is a supervised prediction and regression method that rotates the projection plane to find the maximum covariance between the data and the class assignment. All groups were first analyzed together in a 5-class OPLS-DA and then each exposure group was analyzed against the control group in a 2-class OPLS-DA. Sex differences were analyzed both using the whole data set and in each group separately using 2-class OPLS-DA, with females and males as the two classes. Only variables with 80% or more nonzero values were included in the statistical models. […] The validity of each model was also checked using CV-ANOVA (ANOVA of the cross-validated residuals). A significance level of p < 0.05 was used. For each model, R ^2 X, R ^2 Y and Q ^2 values were calculated, where R ^2 X is a measure of the fraction of x variation modeled in the extracted latent variables, R ^2 Y is a measure of the fraction of y variation modeled and Q ^2 is an estimate of the predictive ability of the model and is calculated by cross-validation. […]

## O=C(O)C(F)(F)C(F)(F)C(F)(F)C(F)(F)C(F)(F)C(F)(F)C(F)(F)F [PFOA, perfluorooctanoic acid]
PFOA 50 μg/egg
  Mean concentration relative to control, feature Win004_C08: 1.0
  Mean concentration relative to control, feature Win005_C07: 1.0
  Mean concentration relative to control, feature Win008_C06: 1.0
  Mean concentration relative to control, feature Win022_C01: 1.0
  Mean concentration relative to control, feature Win023_C06: 0.8
  Mean concentration relative to control, feature win006_C01: 1.0
  Mean concentration relative to control, feature Win008_C07: 1.1
  Mean concentration relative to control, feature Win023_C03: 1.0
  Mean concentration relative to control, feature Win007_C09: 1.0
  Mean concentration relative to control, feature Win008_C05: 1.0
  Mean concentration relative to control, feature Win018_C04: 1.0
  Mean concentration relative to control, feature Win007_C03: 1.0
  Mean concentration relative to control, feature Win042_C02: 1.1
  Mean concentration relative to control, feature Win009_C03: 0.9
  Mean concentration relative to control, feature Win008_C04: 1.1
  Mean concentration relative to control, feature Win005_C03: 0.9
  Mean concentration relative to control, feature Win013_C05: 1.0
PFOA 250 μg/egg
  Mean concentration relative to control, feature Win004_C08: 1.0
  Mean concentration relative to control, feature Win005_C07: 1.0
  Mean concentration relative to control, feature Win008_C06: 1.2
  Mean concentration relative to control, feature Win022_C01: 1.1
  Mean concentration relative to control, feature Win023_C06: 1.1
  Mean concentration relative to control, feature win006_C01: 1.0
  Mean concentration relative to control, feature Win008_C07: 1.0
  Mean concentration relative to control, feature Win023_C03: 1.1
  Mean concentration relative to control, feature Win007_C09: 1.0
  Mean concentration relative to control, feature Win008_C05: 1.0
  Mean concentration relative to control, feature Win018_C04: 1.1
  Mean concentration relative to control, feature Win007_C03: 1.0
  Mean concentration relative to control, feature Win042_C02: 1.3
  Mean concentration relative to control, feature Win009_C03: 1.0
  Mean concentration relative to control, feature Win008_C04: 1.1
  Mean concentration relative to control, feature Win005_C03: 0.9
  Mean concentration relative to control, feature Win013_C05: 1.1
LC, PFOA 50 μg/egg
  Mean concentration relative to control, feature 134.0239@1.1350567: 1.2
  Mean concentration relative to control, feature 145.0538@3.072527: 1.0
  Mean concentration relative to control, feature 147.0328@3.0722888: 1.0
  Mean concentration relative to control, feature 160.0323@1.1950632: 1.0
  Mean concentration relative to control, feature 173.0488@3.0734746: 1.0
  Mean concentration relative to control, feature 176.0952@1.3890611: 0.6*
  Mean concentration relative to control, feature 178.0428@1.7582192: 0.9
  Mean concentration relative to control, feature 180.0048@4.421465: 1.0
  Mean concentration relative to control, feature 189.1159@1.9209185: 0.9
  Mean concentration relative to control, feature 197.0639@2.1181405: 1.0
  Mean concentration relative to control, feature 201.012@3.046474: 1.0
  Mean concentration relative to control, feature 202.0429@2.9548414: 1.0
  Mean concentration relative to control, feature 205.0533@4.421879: 1.0
  Mean concentration relative to control, feature 214.016@2.1190732: 1.1
  Mean concentration relative to control, feature 226.0107@4.421457: 1.0
  Mean concentration relative to control, feature 236.0816@3.0720985: 1.0
  Mean concentration relative to control, feature 241.0551@2.3510706: 0.9
  Mean concentration relative to control, feature 243.1118@2.1537287: 1.0
  Mean concentration relative to control, feature 244.9972@4.421603: 1.0
  Mean concentration relative to control, feature 245.1563@2.2907295: 0.8*
  Mean concentration relative to control, feature 250.0981@3.072492: 1.0
  Mean concentration relative to control, feature 262.0978@2.7961144: 1.0
  Mean concentration relative to control, feature 263.0855@2.2847009: 1.0
  Mean concentration relative to control, feature 270.0441@1.1407775: 0.8
  Mean concentration relative to control, feature 278.0928@3.0723689: 1.0
  Mean concentration relative to control, feature 279.1248@2.796395: 1.0
  Mean concentration relative to control, feature 280.1425@2.730277: 1.0
  Mean concentration relative to control, feature 288.1166@2.9551322: 1.1
  Mean concentration relative to control, feature 289.1012@3.249983: 1.0
  Mean concentration relative to control, feature 289.173@7.5030584: 1.1
  Mean concentration relative to control, feature 294.1242@2.3692534: 1.0
  Mean concentration relative to control, feature 302.0508@3.0722616: 1.0
  Mean concentration relative to control, feature 305.1682@5.353517: 0.8*
  Mean concentration relative to control, feature 305.1684@5.2955093: 0.8
  Mean concentration relative to control, feature 308.073@4.4211636: 1.0
  Mean concentration relative to control, feature 310.1181@1.5090439: 1.0
  Mean concentration relative to control, feature 316.0389@3.0725708: 1.0
  Mean concentration relative to control, feature 320.0626@3.0729218: 1.0
  Mean concentration relative to control, feature 325.1114@2.1190624: 0.9
  Mean concentration relative to control, feature 325.1115@2.3554378: 0.9
  Mean concentration relative to control, feature 333.1335@2.8639288: 0.9
  Mean concentration relative to control, feature 333.2005@6.5291867: 0.9
  Mean concentration relative to control, feature 335.1866@4.508565: 1.0
  Mean concentration relative to control, feature 337.1651@1.8737898: 0.9
  Mean concentration relative to control, feature 344.1424@2.348947: 0.9
  Mean concentration relative to control, feature 348.0553@3.0730357: 1.0
  Mean concentration relative to control, feature 349.1651@2.4087605: 0.9
  Mean concentration relative to control, feature 357.1997@6.9691257: 0.9
  Mean concentration relative to control, feature 371.1513@3.0009465: 1.0
  Mean concentration relative to control, feature 375.1819@3.672254: 0.9
  Mean concentration relative to control, feature 394.167@3.9552917: 0.8
  Mean concentration relative to control, feature 414.1482@2.118972: 1.0
